Results reported in a melting point compilation (Tetko et al.; mined from patent text by program, amines drawn as free bases though some values may be those of a salt).

Structure (SMILES) | melting point [°C]
Clc1cc2cc[nH]c2cn1 | 192 to 194
Cc1sc(Nc2cccc(C#N)n2)nc1-c1cn[nH]c1 | 331
CC(C)Oc1cccc(-n2c(NC(=O)Nc3cccc(C(=O)O)c3)nc3ccccc3c2=O)c1 | 158 to 160
Cc1ccnc(Nc2nc(-c3c[nH]nc3C(=O)c3ccccc3)cs2)n1 | 254 to 255
S=C1Nc2ccccc2CN(c2ccccc2)N1 | 242 to 244
COc1cccc([C@@H]2CC[C@H](c3cccc(O)c3)N2C(=O)CNC(=O)Nc2cccc(C(=O)O)c2)c1 (relative stereo) | 172
Cc1ccc2c(c1)C(C(=O)Nc1c(Br)cccc1Br)c1ccccc1CO2 (stereo unspecified) | 184
N#CC(C#N)=C1N(CCCCN2CCCCC2)CCN1CCN1CCCCC1 | 78 to 79
C/C(=C\c1ccc(C#N)cc1)c1ccc2c(c1)C(C)(C)C=CC2(C)C | 140 to 142
COC(=O)COc1ccc2cc(-c3csc(Cc4c(Cl)cccc4Cl)n3)ccc2c1 | 174 to 177
O=C(CC(CCCc1ccccc1)C(=O)O)c1ccc(Br)cc1 (stereo unspecified) | 147
O=C(NCCOc1ccc(CC(Oc2ccc(-c3ccccn3)cc2)C(=O)O)cc1)c1ccc(-c2ccccn2)cc1 (stereo unspecified) | 98 to 101
CN(C)S(=O)(=O)n1cc(C(=O)c2c(Cl)cc(Cl)cc2Cl)nc1C#N | 142 to 150
O=CN1CCC(c2nn(-c3ccc(C(F)(F)F)cc3)c3cc(F)ccc23)CC1 | 142 to 144
CCn1cc(C(=O)O)c(=O)c2cc(F)c(N3CCN4CCC3C4)nc21 (stereo unspecified) | 228 to 229
O=C(CCC1CCNCC1)c1ccc2[nH]c3ccccc3c2c1 | 206 to 209
CON=C(c1ncno1)c1ccccc1COc1ccc(Cl)cc1 | 96 to 97.5
O=S(=O)(C(=CN=c1ccc(Br)cn1Cc1ccccc1)S(=O)(=O)c1ccccc1)c1ccccc1 | 216 to 217
CCc1ccc2c(c1)C(c1ccccc1F)=NCc1cnc(C)n1-2 | 152 to 154
O=C(Cc1cccnc1)c1ccc(Cl)cc1Cl | 55 to 56

Structure (SMILES) | melting point [°C]
Cc1cc(Oc2ccc3nc(COc4ccc(CC5SC(=O)NC5=O)cc4)n(C)c3c2)cc(C)c1N (stereo unspecified) | 209 to 211
Cc1oc(COc2ccccc2/C=C/C=C/C#N)nc1-c1ccccc1 | 128 to 129
CC(C)N1CCC(C(C(N)=O)(c2ccccc2)c2ccccc2)C1 (stereo unspecified) | 110 to 112
CC1CN(C(=O)C(Cl)Cl)C(C)CN1C(=O)C(Cl)Cl (stereo unspecified) | 215
CC(NC(=O)c1ccc(N)cc1)C(=O)O (stereo unspecified) | 198 to 199
O=C1NCCC[C@@H]1NS(=O)(=O)c1ccc(F)cc1F | 162 to 163
N#Cc1c(N)sc(C=O)c1Sc1ccccc1 | 230
O=CN1CCN(c2nc3cccc4c3n2CCC4)CC1 | 138 to 139
CCOC(=O)c1ccc(NN2CN(Nc3ccc(C(=O)OCC)cc3)CN(Nc3ccc(C(=O)OCC)cc3)C2)cc1 | 218 to 223
COc1c(F)cc2c(=O)c(C(=O)O)cn3c2c1CCC3C (stereo unspecified) | 234 to 236
CCC[C@H]1CN(c2c(F)cc3c(=O)c(C(=O)O)cn([C@@H]4C[C@@H]4F)c3c2OC)C[C@H]1N | 79 to 83
O=C(OCc1ccccc1)N1CCN(c2ccc(-c3ccnc(Nc4ccc5[nH]nnc5c4)n3)cn2)CC1 | 247 to 249
COC(=O)Cc1ccc(CN2CCN(C(c3ccccc3)c3ccccn3)CC2)cc1 (stereo unspecified) | 122 to 123
N#CCCNC(=O)c1cccc(-c2ccc3c(c2)N(c2cc(Cl)cc(Cl)c2)CC3)c1 | 196 to 197
CCOP(=O)(OCC)C(O)=Cc1nn(-c2ccc(F)cc2)cc1-c1ccc(Cl)cc1 | 96 to 98
C[C@]1(COc2ccc3nc(N4CCC(Cc5ccc(OC(F)(F)F)cc5)CC4)ccc3c2)Cn2cc([N+](=O)[O-])nc2O1 | 185 to 186
O=C(O)C[C@H]1CCCCN1C(=O)C=Cc1c(-c2ccccc2)nn2ccccc12 | 165 to 166
ON=C1CCc2c([nH]c3ccccc23)C1 | 196
CC(C)C[C@@H]1NC(=O)[C@@H]1O | 141 to 142
OCc1sc(Cl)nc1-c1ccc(F)cc1 | 97 to 98.5

Structure (SMILES) | melting point [°C]
CN(C=O)[C@@H]1CCCc2ccccc21 | 53 to 55
O=C1c2c(Cl)cccc2-n2cnc(I)c2[C@@H]2CCCN12 | 298 to 300
Oc1cc(Br)c(-c2c3ccccc3c(Br)c3sc4ccccc4c23)cc1O | 138 to 140
Fc1ccc(OCCCCCN2CCN(c3nccs3)CC2)cc1 | 42 to 44
O=c1[nH]c(=O)n(C2CC(OCc3ccccc3)C(COC(c3ccccc3)(c3ccccc3)c3ccccc3)O2)cc1F (stereo unspecified) | 138 to 139
CC(C)NC1=NS(=O)(=O)c2cc(Cl)sc2N1 | 272 to 274
Cc1cc(I)ccc1O | 64 to 65
NC(=O)c1cc(C(c2c(F)ccc(F)c2F)S(=O)(=O)CCC(F)(F)F)c(Cl)cn1 (stereo unspecified) | 237 to 239
O=C1CNCc2[nH]c3ccccc3c21 | 220 to 233
O=C(NC1CCN(CCC2CCOc3ccccc32)CC1)c1cccnc1 (stereo unspecified) | 126 to 128
CC/C(=C(\c1ccc(/C=C/C(=O)O)cc1)c1ccc(OP(=O)(O)O)cc1)c1ccccc1 | 181 to 183
CN1C(=O)CC2(CCc3cc4ccccc4n3C2)C1=O (stereo unspecified) | 158 to 164
O=[N+]([O-])c1ccc2c(c1)CC(O)c1ccccc1S2 (stereo unspecified) | 144 to 146
CCCCCCCCCCC1(CCCCCCCCCC)c2cc(Br)ccc2-c2ccc(-c3cccs3)cc21 | 36.9 to 38.4
C=C(C)C(=O)NCc1ccc(S(=O)(=O)ON=C2c3ccccc3-c3ccccc32)cc1 | 187 to 188
Cc1nc2ccc3ccc(CNc4ccc5c(c4)CN([C@@H](CCC(=O)O)C(=O)N[C@@H](Cc4ccccc4)C(=O)O)C5=O)cc3c2c(=O)[nH]1 | 180
Cc1cc(C)c(C)c(COc2ccccc2-c2ccoc2C(=O)NNC(=O)c2ccc(O)c(C#N)c2)c1C | 215 to 217
COc1ccc(COc2cccc(OC)c2C(C)=O)cc1 | 105 to 107

Further lines, results first:

melting point [°C] | Structure (SMILES)
192 to 193 | CC(=O)NC[C@H]1CN(c2ccc(-c3noc(C(F)(F)F)n3)c(F)c2)C(=O)O1
75 to 77 | CC(C)(C)OC(=O)NCCCn1nnnc1S
138 to 139 | CCNC(=O)c1sc(Oc2ccc3c(c2)OCO3)c2c1CCc1cnn(C)c1-2
127 to 129 | CCCCCCCCCCCCCCCc1cccc(OCC)c1C1NC(=O)NC(C)=C1C(=O)OC (stereo unspecified)
132 to 133 | CCOP(=O)(/C=C/c1cn(-c2ccccc2)nc1NC)OCC
233 to 234 | CCNC(=O)NS(=O)(=O)c1cc2c(cc1OC)OCC(NC(=O)c1cc(Cl)ccc1OC)C2 (stereo unspecified)
149 to 150 | CN(C)S(=O)(=O)c1cc2c(c(Cl)c1Cl)OC(C(=O)OCC(=O)O)C2 (stereo unspecified)
134 to 139 | CCN(CC)CCNc1ccc(CNS(C)(=O)=O)c2sc3ccc(Br)cc3c(=O)c12
112 to 113 | CCCN(C(C)=O)c1ccc(C(=O)N2CCN(CCc3ccc(Cl)cc3)CC2)cc1
173 to 176 | CN(C)C(=O)/C=C/CSc1nc(N)cc(Cl)n1
160 to 162 | CC(=O)c1c(C)cc(=O)[nH]c1C
170 | Cn1cncc1C(O)(c1ccc(C=O)cc1)c1ccc2c(c1)c(-c1cccc(Cl)c1)nc1nnnn12 (stereo unspecified)
113 | COC(=O)CN1CCCC(Nc2ncc3ncnc(Nc4cccc(Br)c4)c3n2)C1 (stereo unspecified)
196 to 197 | CC(C#N)(CNC(=O)c1n[nH]cc1NC(=O)c1ccccn1)Cc1ccccc1 (stereo unspecified)
170 to 172 | CC(C)(C)OC(=O)NC(=Cc1ncoc1C(C)(C)C)C(=O)OC(C)(C)C
204 to 205 | CNC(=O)[C@@H](NC(=O)[C@H](CC(=O)O)CC(C)C)C(C)(C)C
194 to 196 | CCCCCS(=O)(=O)NC(=O)/C=C/c1ccc(OCCCS(C)(=O)=O)cc1Oc1ncc(C(F)(F)F)cc1Cl
108 to 109 | CCOc1nn(-c2ccc(C(F)(F)F)cc2)cc1CCCOc1cccc(CC(=O)O)c1
114 to 117 | COc1cc(OC)c(NC(=O)C(c2ccccc2)n2nnc(C(c3ccccc3)c3ccccc3)n2)c(OC)c1 (stereo unspecified)

melting point [°C] | Structure (SMILES)
107 to 110 | Cc1nn(C)c2c1N=C(C1CC1)N1CC(C)N=C21 (stereo unspecified)
80 | Cc1ccc(S(=O)(=O)NC(=O)CC(=O)O)cc1
188 to 190 | CCn1ncc2c(NCC3CCC(CO)CC3)c3ccccc3nc21 (stereo unspecified)
173 to 176 | COC(=O)c1sc(Br)cc1N
229 | CCc1ccccc1NC=C1C(=O)N(c2cccc(NC(=O)OC)c2)N=C1C
188 to 190 | CCCCS(=O)(=O)c1ccc(CCc2nccn3c(CC#N)ccc23)cc1
249 to 251 | CC(=O)N(C)c1cc2c(nc(C)n2C)c(O)c1CCC(=O)c1ccccc1
148 | Cn1nc(CO)nc1NCC(O)CCOc1cccc(CN2CCCCC2)c1 (stereo unspecified)
148 to 150 | Cc1cc(Cl)c(C)c(S(=O)(=O)Nc2onc(C)c2Br)c1
97 | CCC(=O)c1cc(C(=O)C(=O)c2cccc(OC)c2)cn1CC
255 | CC(C)NC(=NC#N)Nc1ccc(C2=NNC(=O)CC2C)cc1 (stereo unspecified)
120 | CN(C)CCNC(=O)c1ccc2c(c1)CN(C(=O)CCCCCN1CCN(c3cccc(C(F)(F)F)c3)CC1)C2
143 to 146 | CC(C)c1cc(C(C)C)c(CC(=O)NS(=O)(=O)Oc2c(C(C)C)cc(N(CCO)CCO)cc2C(C)C)c(C(C)C)c1
241 to 244 | COc1ccc(Nc2cc(-c3ccc(S(C)(=O)=O)cc3)nc(N)n2)cc1Cl
159 to 160 | CCN1c2ncc(OCc3ccccc3)cc2C(=O)N(C)c2ccc(Cl)nc21
57 | COC(=O)CCNc1cccc(CNC(=O)C2Cc3ccccc3N2S(=O)(=O)c2ccc(-c3cccc(C(F)(F)F)c3)cc2)c1 (stereo unspecified)
182 | CC1CC(=O)NN=C1c1ccc(N2CCN(C(=O)NCCCc3c[nH]cn3)CC2)c([N+](=O)[O-])c1 (stereo unspecified)
119 to 121 | COC(=O)CCCNC(=O)C(CO)NS(=O)(=O)c1ccc(Cl)cc1 (racemic)
177 to 181 | CC(=O)NCCOC1=C2C=C(S(N)(=O)=O)SC2S(=O)(=O)CC1 (stereo unspecified)
